Data on 1 molecule can be found in ChEMBL document CHEMBL5338717, “Discovery of novel PDE4 inhibitors targeting the M-pocket from natural mangostanin with improved safety for the treatment of Inflammatory Bowel Diseases” (Eur J Med Chem, 2022).

Structures are written as SMILES. Calls of active or inactive are those of the source. The calls are words filed in the database; no cut-off is given here.

Data set [1] deals with cGMP-inhibited 3',5'-cyclic phosphodiesterase 3A (Homo sapiens, UniProt Q14432). Put plainly: Inhibition of recombinant PDE3A (679 to 1087 residues) (unknown origin) expressed in Escherichia coli BL21 using [3H]cAMP as substrate incubated for 15 mins by liquid scintillation method.
The nature of data set [2]: Toxicity in twelve hrs fasted Beagle dog assessed as emesis at 10 mg/kg,po and measured upto 180 mins. In kind it is organism-based, Canis lupus familiaris. The settings on record: in vivo, 3 h.
Data set [3] has as its system Mus musculus. Briefly: Anti-inflammatory bowel disease activity in DSS-induced inflammatory bowel disease C57BL/6 mouse model assessed as decrease in body weight loss by measuring disease activity index score at 5 mg/kg, iv BID and measured upto 8 days. The data set is classed as functional, organism-based. The settings on record: time <= 8.0 day.
Data set [4] deals with Mus musculus. Put plainly: Anti-inflammatory bowel disease activity in DSS-induced inflammatory bowel disease C57BL/6 mouse model assessed as decrease in goblet cells in colon at 5 mg/kg, iv BID and measured after 8 days by Haematoxylin and eosin staining based microscopy. The settings on record: time 8.0 day. The data set is classed as functional, organism-based.
In data set [5] the target is 3',5'-cyclic-AMP phosphodiesterase 4B (Homo sapiens, UniProt Q07343). Put plainly: Inhibition of recombinant PDE4B2 (152 to 487 residues) (unknown origin) expressed in Escherichia coli BL21 using [3H]cAMP as substrate incubated for 15 mins by liquid scintillation method.
For data set [6], the system named is Mus musculus. Briefly: Anti-inflammatory bowel disease activity in DSS-induced inflammatory bowel disease C57BL/6 mouse model assessed as decrease in IL-6 mRNA expression level in colon at 5 mg/kg, iv BID and measured after 8 days by real-time PCR analysis. In kind it is functional, organism-based. The settings on record: time 8.0 day.
Data set [7] deals with cGMP-specific 3',5'-cyclic phosphodiesterase (Homo sapiens, UniProt O76074). Briefly: Inhibition of recombinant PDE5A1 (535 to 860 residues) (unknown origin) expressed in Escherichia coli BL21 using [3H]cGMP as substrate incubated for 15 mins by liquid scintillation method.
Data set [8] has as its system Mus musculus. Briefly: Anti-inflammatory bowel disease activity in DSS-induced inflammatory bowel disease C57BL/6 mouse model assessed as increase in body weight at 5 mg/kg, iv BID and measured after 8 days […]. The data set is classed as functional, organism-based. The settings on record: time 8.0 day.
Data set [9] relates to Mus musculus. Put plainly: Anti-inflammatory bowel disease activity in DSS-induced inflammatory bowel disease C57BL/6 mouse model assessed as decrease in mucosal ulceration in colon at 5 mg/kg, iv BID and measured after 8 days by Haematoxylin and eosin staining based microscopy. The data set is classed as functional, organism-based. The settings on record: time 8.0 day.
Data set [10] has as its system Mus musculus. Put plainly: Anti-inflammatory bowel disease activity in DSS-induced inflammatory bowel disease C57BL/6 mouse model assessed as decrease in epithelial damage in colon at 5 mg/kg, iv BID and measured after 8 days by Haematoxylin and eosin staining based microscopy. The data set is classed as functional, organism-based. The settings on record: time 8.0 day.

For data set [11], the system named is Mus musculus. Put plainly: Anti-inflammatory bowel disease activity in DSS-induced inflammatory bowel disease C57BL/6 mouse model assessed as decrease in IL-10 mRNA expression level in colon at 5 mg/kg, iv BID and measured after 8 days by real-time PCR analysis. The settings on record: time 8.0 day. In kind it is functional, organism-based.
The target in data set [12] is Cytochrome P450 2C9 (Homo sapiens, UniProt P11712). Put plainly: Inhibition of human CYP2C9 in human hepatocytes. In kind it is ADME, cell-based, Hepatocyte.
Data set [13] concerns the target High affinity cAMP-specific and IBMX-insensitive 3',5'-cyclic phosphodiesterase 8A (Homo sapiens, UniProt O60658). Put plainly: Inhibition of recombinant PDE8A1 (480 to 828 residues) (unknown origin) expressed in Escherichia coli BL21 using [3H]cAMP as substrate incubated for 15 mins by liquid scintillation method.
Data set [14] can be described thus: Elimination half life in Sprague-Dawley rat at 2.5 mg/kg, iv. The settings on record: in vivo, read-out: beta t1/2 (converted). The data set is classed as ADME, organism-based.
In data set [15] the test system is Mus musculus. Briefly: Anti-inflammatory bowel disease activity in DSS-induced inflammatory bowel disease C57BL/6 mouse model assessed as decrease in diarrhoea by measuring disease activity index score at 5 mg/kg, iv BID and measured upto 8 days. In kind it is functional, organism-based. The settings on record: time <= 8.0 day.
For data set [16], the system named is Mus musculus. Briefly: Anti-inflammatory bowel disease activity in DSS-induced inflammatory bowel disease C57BL/6 mouse assessed as decrease in neutrophil infiltration in colon at 5 mg/kg, iv BID and measured after 8 days by Haematoxylin and eosin staining based microscopy. In kind it is functional, organism-based. The settings on record: time 8.0 day.
The nature of data set [17]: Acute toxicity in mouse assessed as body weight change at 0.75 g/Kg,po. The settings on record: in vivo, 750 mg/kg.
Data set [18] has as its system Mus musculus. Put plainly: Anti-inflammatory bowel disease activity in DSS-induced inflammatory bowel disease C57BL/6 mouse model assessed as decrease in IFN-gamma mRNA expression level in colon at 5 mg/kg, iv BID and measured after 8 days by real-time PCR analysis. The settings on record: time 8.0 day. In kind it is functional, organism-based.
The target of data set [19] is Voltage-gated inwardly rectifying potassium channel KCNH2 (Homo sapiens, UniProt Q12809). Put plainly: Inhibition of human ERG. In kind it is toxicity.
Data set [20] is described as follows: AUC(0 to 24 hrs) in Sprague-Dawley rat at 2.5 mg/kg, iv. The data set is classed as ADME, organism-based. More on the design: dose 2.5 mg/kg, route iv. The settings on record: in vivo.
For data set [21], the target named is cGMP-dependent 3',5'-cyclic phosphodiesterase (Homo sapiens, UniProt O00408). Briefly: Inhibition of recombinant PDE2A (580 to 919 residues) (unknown origin) expressed in Escherichia coli BL21 using [3H]cGMP as substrate incubated for 15 mins by liquid scintillation method.
Data set [22] deals with T1, Cytochrome P450 1A2 (Homo sapiens, UniProt P05177).
T1 sequence (P05177 whole entry): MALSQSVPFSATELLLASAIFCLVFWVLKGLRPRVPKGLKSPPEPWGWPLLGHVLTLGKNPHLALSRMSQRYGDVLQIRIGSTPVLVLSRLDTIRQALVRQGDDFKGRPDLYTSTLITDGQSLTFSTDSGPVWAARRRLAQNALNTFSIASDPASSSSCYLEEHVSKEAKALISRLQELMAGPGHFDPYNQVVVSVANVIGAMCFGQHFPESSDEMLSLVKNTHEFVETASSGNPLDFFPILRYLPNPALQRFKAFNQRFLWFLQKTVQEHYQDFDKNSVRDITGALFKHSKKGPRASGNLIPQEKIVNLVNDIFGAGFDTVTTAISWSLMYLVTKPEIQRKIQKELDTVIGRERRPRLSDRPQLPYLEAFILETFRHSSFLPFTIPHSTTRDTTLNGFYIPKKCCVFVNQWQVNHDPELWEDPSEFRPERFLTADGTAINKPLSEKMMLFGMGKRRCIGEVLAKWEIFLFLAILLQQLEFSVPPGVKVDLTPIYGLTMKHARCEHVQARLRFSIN
Put plainly: Inhibition of human CYP1A2 in human hepatocytes. In kind it is ADME, cell-based, Hepatocyte.

For data set [23], the system named is Mus musculus. Put plainly: Anti-inflammatory bowel disease activity in DSS-induced inflammatory bowel disease C57BL/6 mouse model assessed as decrease in loss of crypt architecture in colon at 5 mg/kg, iv BID and measured after 8 days by Haematoxylin and eosin staining based microscopy. The data set is classed as functional, organism-based. The settings on record: time 8.0 day.

Chain of Cytochrome P450 2C9 (P11712 whole entry, the tested form may be a part): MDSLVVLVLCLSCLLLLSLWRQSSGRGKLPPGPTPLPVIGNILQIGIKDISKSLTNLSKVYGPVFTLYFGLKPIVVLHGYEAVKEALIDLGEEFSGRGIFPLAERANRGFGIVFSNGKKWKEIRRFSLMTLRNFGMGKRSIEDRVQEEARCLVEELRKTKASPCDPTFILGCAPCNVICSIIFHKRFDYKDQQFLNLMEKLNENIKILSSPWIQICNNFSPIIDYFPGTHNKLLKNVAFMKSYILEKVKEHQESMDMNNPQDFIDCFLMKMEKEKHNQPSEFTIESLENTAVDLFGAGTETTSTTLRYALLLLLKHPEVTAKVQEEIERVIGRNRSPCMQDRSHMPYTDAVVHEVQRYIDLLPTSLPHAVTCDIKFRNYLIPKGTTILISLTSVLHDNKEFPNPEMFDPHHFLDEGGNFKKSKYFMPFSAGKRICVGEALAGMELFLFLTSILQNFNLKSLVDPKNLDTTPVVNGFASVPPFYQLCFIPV
Chain of cGMP-dependent 3',5'-cyclic phosphodiesterase (O00408 whole entry, the tested form may be a part): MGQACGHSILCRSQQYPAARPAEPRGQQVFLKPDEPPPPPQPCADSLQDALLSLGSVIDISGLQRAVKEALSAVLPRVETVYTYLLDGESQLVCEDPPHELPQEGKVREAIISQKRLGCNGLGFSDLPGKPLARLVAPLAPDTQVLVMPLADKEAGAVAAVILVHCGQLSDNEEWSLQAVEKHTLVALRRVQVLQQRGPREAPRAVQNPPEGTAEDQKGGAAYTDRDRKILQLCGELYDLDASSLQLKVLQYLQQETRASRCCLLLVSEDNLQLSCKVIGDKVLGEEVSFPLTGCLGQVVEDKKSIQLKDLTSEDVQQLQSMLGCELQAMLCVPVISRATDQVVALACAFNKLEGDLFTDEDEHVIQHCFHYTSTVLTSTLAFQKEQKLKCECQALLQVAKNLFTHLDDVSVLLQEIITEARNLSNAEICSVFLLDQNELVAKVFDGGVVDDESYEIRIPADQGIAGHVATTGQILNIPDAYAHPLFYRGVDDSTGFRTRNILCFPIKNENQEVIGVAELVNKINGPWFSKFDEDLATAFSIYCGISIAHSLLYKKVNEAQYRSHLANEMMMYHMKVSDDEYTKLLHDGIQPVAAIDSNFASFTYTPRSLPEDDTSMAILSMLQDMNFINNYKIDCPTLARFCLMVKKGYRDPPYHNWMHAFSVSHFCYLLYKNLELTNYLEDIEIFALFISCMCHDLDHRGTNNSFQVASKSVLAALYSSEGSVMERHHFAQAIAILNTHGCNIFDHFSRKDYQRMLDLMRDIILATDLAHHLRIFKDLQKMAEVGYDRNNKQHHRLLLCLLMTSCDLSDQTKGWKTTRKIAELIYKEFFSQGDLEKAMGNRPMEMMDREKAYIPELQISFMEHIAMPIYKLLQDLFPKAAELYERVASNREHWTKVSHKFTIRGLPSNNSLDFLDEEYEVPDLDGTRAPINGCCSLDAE
Chain of High affinity cAMP-specific and IBMX-insensitive 3',5'-cyclic phosphodiesterase 8A (O60658 whole entry, the tested form may be a part): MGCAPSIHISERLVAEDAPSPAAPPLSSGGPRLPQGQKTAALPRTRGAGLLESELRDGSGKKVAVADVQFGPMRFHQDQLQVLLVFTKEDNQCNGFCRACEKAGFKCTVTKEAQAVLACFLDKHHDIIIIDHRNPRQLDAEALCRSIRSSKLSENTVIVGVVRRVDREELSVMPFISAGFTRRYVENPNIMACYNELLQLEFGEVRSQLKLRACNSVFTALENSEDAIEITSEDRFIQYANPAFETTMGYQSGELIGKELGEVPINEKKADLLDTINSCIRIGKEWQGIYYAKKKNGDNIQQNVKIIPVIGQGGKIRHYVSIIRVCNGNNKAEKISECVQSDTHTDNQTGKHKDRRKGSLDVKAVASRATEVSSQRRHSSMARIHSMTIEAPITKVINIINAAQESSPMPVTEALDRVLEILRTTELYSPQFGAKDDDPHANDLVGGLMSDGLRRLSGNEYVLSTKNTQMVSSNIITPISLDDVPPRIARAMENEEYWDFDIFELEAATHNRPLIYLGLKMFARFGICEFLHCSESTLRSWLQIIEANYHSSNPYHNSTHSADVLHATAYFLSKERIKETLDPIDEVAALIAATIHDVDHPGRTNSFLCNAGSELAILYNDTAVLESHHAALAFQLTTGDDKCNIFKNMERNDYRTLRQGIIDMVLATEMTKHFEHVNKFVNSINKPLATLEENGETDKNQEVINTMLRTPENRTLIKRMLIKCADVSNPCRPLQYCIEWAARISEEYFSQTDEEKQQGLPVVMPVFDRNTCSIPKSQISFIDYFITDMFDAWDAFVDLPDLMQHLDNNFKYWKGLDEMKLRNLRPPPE
Chain of 3',5'-cyclic-AMP phosphodiesterase 4B (Q07343 whole entry, the tested form may be a part): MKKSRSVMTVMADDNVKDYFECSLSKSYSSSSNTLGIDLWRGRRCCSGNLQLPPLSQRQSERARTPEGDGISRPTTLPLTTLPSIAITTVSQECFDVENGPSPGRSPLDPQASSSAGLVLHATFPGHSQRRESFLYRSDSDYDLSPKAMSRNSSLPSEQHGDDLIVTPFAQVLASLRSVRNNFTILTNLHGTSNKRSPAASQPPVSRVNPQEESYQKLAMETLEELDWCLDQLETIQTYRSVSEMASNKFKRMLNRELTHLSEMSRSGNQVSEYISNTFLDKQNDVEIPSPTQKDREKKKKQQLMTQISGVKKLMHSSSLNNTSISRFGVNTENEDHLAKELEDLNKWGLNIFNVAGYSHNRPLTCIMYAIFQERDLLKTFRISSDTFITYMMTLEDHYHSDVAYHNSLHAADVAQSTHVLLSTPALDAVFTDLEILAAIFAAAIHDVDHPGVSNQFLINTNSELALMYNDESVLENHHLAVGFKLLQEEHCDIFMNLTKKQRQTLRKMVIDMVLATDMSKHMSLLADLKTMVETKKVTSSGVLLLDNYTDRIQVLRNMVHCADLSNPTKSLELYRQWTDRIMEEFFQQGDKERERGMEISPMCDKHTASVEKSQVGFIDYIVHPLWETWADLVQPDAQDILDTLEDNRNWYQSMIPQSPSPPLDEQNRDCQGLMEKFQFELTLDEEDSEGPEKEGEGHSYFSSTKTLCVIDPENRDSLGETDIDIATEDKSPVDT
Chain of Voltage-gated inwardly rectifying potassium channel KCNH2 (Q12809 whole entry): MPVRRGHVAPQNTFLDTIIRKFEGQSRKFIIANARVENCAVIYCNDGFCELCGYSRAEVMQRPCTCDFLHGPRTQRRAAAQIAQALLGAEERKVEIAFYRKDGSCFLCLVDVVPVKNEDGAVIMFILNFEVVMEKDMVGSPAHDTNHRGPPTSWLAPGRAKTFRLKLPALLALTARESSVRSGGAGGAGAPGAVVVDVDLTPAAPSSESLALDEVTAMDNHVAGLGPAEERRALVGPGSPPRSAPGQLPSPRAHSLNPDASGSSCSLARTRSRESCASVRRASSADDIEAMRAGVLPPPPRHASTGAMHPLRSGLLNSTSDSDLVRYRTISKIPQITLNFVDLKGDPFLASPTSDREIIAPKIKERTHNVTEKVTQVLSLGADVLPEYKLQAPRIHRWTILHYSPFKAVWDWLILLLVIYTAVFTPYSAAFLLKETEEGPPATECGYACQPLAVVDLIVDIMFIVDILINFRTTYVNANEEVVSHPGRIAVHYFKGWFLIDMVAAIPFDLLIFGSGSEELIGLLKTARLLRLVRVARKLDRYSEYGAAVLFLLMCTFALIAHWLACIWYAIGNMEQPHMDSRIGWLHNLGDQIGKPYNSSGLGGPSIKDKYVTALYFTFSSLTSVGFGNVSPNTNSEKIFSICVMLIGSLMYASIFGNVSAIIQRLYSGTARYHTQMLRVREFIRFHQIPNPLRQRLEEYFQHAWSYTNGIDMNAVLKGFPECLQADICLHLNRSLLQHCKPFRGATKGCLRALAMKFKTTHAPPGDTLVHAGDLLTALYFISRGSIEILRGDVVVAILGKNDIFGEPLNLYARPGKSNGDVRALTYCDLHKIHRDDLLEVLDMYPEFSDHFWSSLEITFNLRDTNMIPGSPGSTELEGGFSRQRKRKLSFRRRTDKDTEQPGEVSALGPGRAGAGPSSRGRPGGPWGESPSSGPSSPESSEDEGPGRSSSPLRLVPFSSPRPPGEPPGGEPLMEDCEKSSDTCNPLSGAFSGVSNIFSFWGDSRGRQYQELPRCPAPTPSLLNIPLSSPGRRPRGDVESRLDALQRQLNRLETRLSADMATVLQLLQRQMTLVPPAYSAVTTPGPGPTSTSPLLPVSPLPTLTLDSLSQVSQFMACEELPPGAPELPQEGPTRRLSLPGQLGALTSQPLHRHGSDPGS

On to `COc1c(OCC2CC2)cc2oc3cc4c(c(OCc5ccncc5)c3c(=O)c2c1CC=C(C)C)C=CC(C)(C)O4`, for which the half-inhibitory concentration (IC50) in [1] was > 10 µM; in data set [5], 9.51 nM; in data set [7], 1240 nM; in [12], 4.1 µM; in data set [13] it was 194 nM; in data set [19], > 40 µM. Besides, the IC50 in [21] is > 10 µM; in [22], > 25 µM. In addition, the Activity result in data set [2] and in data set [17] was “Non-Toxic” each time. Further, the outcome in [3], in [4], in data set [6], in data set [8], in [9] and in [10] was Active. Also, the outcome in [11], in data set [15], in data set [16], in data set [18] and in [23] was Active. For the same molecule, the half-life in data set [14] is 251 min. Moreover, the AUC(0-t) in data set [20] turned out to be 6520 ng·h/mL.
